Paper PMC12040169 (PLOS Biology, 2025)
“And” between values parts separate entries of the source, which are not always exact repeats. Identical values can stand only once.

Experiments:
HeLa = details: bulk resorufin, single well, 28.5 h, 10 µM, Bulk resorufin fluorescence
in vitro = details: human, hela cells, % viability

## C[C@@H]1CN2CCCC2CN1Cc1ccc2ccccc2n1 (stereo partly shown) [CBK285408]
HeLa
  % viability: 104%
In vitro
  viability at 28.5 h, 10 µM: 101%

## CCC1CCCCN1C(=O)c1ccc(C(=O)NC)cc1 (stereo not shown) [CBK083371]
HeLa
  % viability: 103%
In vitro
  viability at 28.5 h, 10 µM: 95.6%

## COc1ccc(CN2CC3CCCN3C[C@H]2C)cc1 (stereo partly shown) [CBK285412]
HeLa
  % viability: 103%
In vitro
  viability at 28.5 h, 10 µM: 111%

## CCC(=O)N1CCC[C@H](Cn2nc(-c3cccs3)ccc2=O)C1 [CBK283046]
HeLa
  % viability: 100%
In vitro
  viability at 28.5 h, 10 µM: 95.3%

## CC(C)C(=O)N1CCC[C@H]1Cn1nc(-c2cccs2)ccc1=O [CBK285469]
HeLa
  % viability: 96.1%
In vitro
  viability at 28.5 h, 10 µM: 97.8%

## COc1cc2[nH]c(=S)n(C3CCCC3)c(=O)c2cc1OC [CBK288518]
HeLa
  % viability: 93.5%
In vitro
  viability at 28.5 h, 10 µM: 84.9%

## COC(=O)c1ccc(CN2CC3CCCN3C[C@@H]2C)cc1 (stereo partly shown) [CBK285403]
HeLa
  % viability: 103%
In vitro
  viability at 28.5 h, 10 µM: 111%

## CC(C)[C@@H](Cn1nc(C2CC2)ccc1=O)NC(=O)C1CC1 [CBK284309]
HeLa
  % viability: 85.9%
In vitro
  viability at 28.5 h, 10 µM: 86.1%

## O=C(O)C1Cc2c([nH]c3ccccc23)C(c2ccc(Cl)cc2Cl)N1 (stereo not shown) [CBK115930]
HeLa
  % viability: 96.2%
In vitro
  viability at 28.5 h, 10 µM: 88.5%

## C[C@@H](Cn1c(=O)oc2ccccc21)NC(=O)Cc1c[nH]c2ccccc12 [CBK284534]
HeLa
  % viability: 88.7%
In vitro
  viability at 28.5 h, 10 µM: 85.7%

## Nc1nc2cccnc2cc1-c1cccc(OCc2ccccc2)c1 [CBK081206]
HeLa
  % viability: 105%
In vitro
  viability at 28.5 h, 10 µM: 99.2%

## O=S(=O)(/C=C/c1ccncc1)NCc1ccc2c(c1)OCO2 [CBK018566]
HeLa
  % viability: 92.8%
In vitro
  viability at 28.5 h, 10 µM: 91.3%

## O=C(c1cnc2[nH][nH]c(=O)c2c1)c1ccccc1O [CBK288082]
HeLa
  % viability: 110%
In vitro
  viability at 28.5 h, 10 µM: 90.5%

## Cc1cc(C(NC(C)(C)C)C(=O)O)cc(C)c1O (stereo not shown) [CBK027143]
HeLa
  % viability: 90.9%
In vitro
  viability at 28.5 h, 10 µM: 86.6%

## O=C(O)CCCC(=O)N1CCN(Cc2ccc3c(c2)OCO3)CC1 [CBK074752]
HeLa
  % viability: 80.8%
In vitro
  viability at 28.5 h, 10 µM: 99.3%

## COc1ccccc1CN1CC2CCCN2C[C@H]1C (stereo partly shown) [CBK285409]
HeLa
  % viability: 106%
In vitro
  viability at 28.5 h, 10 µM: 90.6%

## O=C(O)c1ccc(S(=O)(=O)Nc2ccc(O)c(-c3c(O)ccc4ccccc34)c2)cc1 [CBK267667]
HeLa
  % viability: 94.7%
In vitro
  viability at 28.5 h, 10 µM: 108%

## CCCC(=O)Nc1c(C)nn(C)c1N1CCNCC1 [CBK045924T]
HeLa
  % viability: 102%
In vitro
  viability at 28.5 h, 10 µM: 87.2%

## CCCCn1nc(C)c(-c2cc(C(=O)O)[nH]n2)c1C [CBK287047]
HeLa
  % viability: 84.5%
In vitro
  viability at 28.5 h, 10 µM: 95%

## N#CCCN(C(=O)NC(c1ccccc1)c1ccccc1)C1CCCCC1 [CBK156354]
HeLa
  % viability: 104%
In vitro
  viability at 28.5 h, 10 µM: 98.7%

## CCCCn1cc(CN2CC3CCCN3C[C@H]2C)c(C)n1 (stereo partly shown) [CBK285433]
HeLa
  % viability: 98.7%
In vitro
  viability at 28.5 h, 10 µM: 92.9%

## Cc1ccc(S(=O)(=O)N2CCN(c3ccc(Cl)c(Cl)c3)CC2)c(C)c1 [CBK099298]
HeLa
  % viability: 118%
In vitro
  viability at 28.5 h, 10 µM: 111%

## CC(=O)c1sc(NC(=O)c2ccc(Cl)cc2)nc1C [CBK087686]
HeLa
  % viability: 88.4%
In vitro
  viability at 28.5 h, 10 µM: 86.7%

## Cc1onc(-c2ccccc2)c1C(=O)NCCNC(=O)c1c(-c2ccccc2)noc1C [CBK085092]
HeLa
  % viability: 108%
In vitro
  viability at 28.5 h, 10 µM: 106%

## CC1Cc2ccccc2N1c1ncnc2nc[nH]c12 (stereo not shown) [CBK287388]
HeLa
  % viability: 66.9%
In vitro
  viability at 28.5 h, 10 µM: 66.8%

## c1ccc(-c2csc3ncnc(NCc4ccco4)c23)cc1 [CBK017506]
HeLa
  % viability: 84.6%
In vitro
  viability at 28.5 h, 10 µM: 91.1%

## CCCC(=O)N1CCC[C@@H](Cn2nc(-c3cccs3)ccc2=O)C1 [CBK282245]
HeLa
  % viability: 98%
In vitro
  viability at 28.5 h, 10 µM: 88.5%

## Cn1cc(C(=O)N2C3CCC(C3)[C@@H]2COc2ccc(F)cc2)cn1 (stereo partly shown) [CBK284605]
HeLa
  % viability: 112%
In vitro
  viability at 28.5 h, 10 µM: 93.7%

## Nc1ccc2cc(-c3ccccc3)cnc2n1 [CBK061881]
HeLa
  % viability: 94.9%
In vitro
  viability at 28.5 h, 10 µM: 81.7%

## C[C@H]1CN2CCCC2CN1Cc1ccccc1F (stereo partly shown) [CBK285450]
HeLa
  % viability: 103%
In vitro
  viability at 28.5 h, 10 µM: 96.5%

## O=C(O)CCCNc1ccc(S(=O)(=O)N2CCCCC2)cc1 [CBK261001]
HeLa
  % viability: 90.5%
In vitro
  viability at 28.5 h, 10 µM: 96.7%

## O=C(O)c1ccc(CN(c2ccccc2)S(=O)(=O)c2ccccc2)cc1 [CBK262406]
HeLa
  % viability: 82.8%
In vitro
  viability at 28.5 h, 10 µM: 93.3%

## C=CCNC(=O)[C@@H]1C=CCN1C(=O)c1ccccc1F [CBK283052]
HeLa
  % viability: 98.9%
In vitro
  viability at 28.5 h, 10 µM: 105%

## C=Cn1ncc(CN2C[C@@H]3CCCN3C[C@H]2CCSC)c1C [CBK285440]
HeLa
  % viability: 101%
In vitro
  viability at 28.5 h, 10 µM: 99.4%

## CCCC(=O)Nc1cc2ccccc2c(N2CCNCC2)n1 [CBK024608T]
HeLa
  % viability: 104%
In vitro
  viability at 28.5 h, 10 µM: 102%

## Cc1cc(CNS(=O)(=O)c2sc3ccc(Cl)cc3c2C)no1 [CBK062277]
HeLa
  % viability: 92.3%
In vitro
  viability at 28.5 h, 10 µM: 109%

## C[C@H]1CN2CCCC2CN1Cc1c(F)cccc1F (stereo partly shown) [CBK285451]
HeLa
  % viability: 102%
In vitro
  viability at 28.5 h, 10 µM: 89.8%

## C[C@@H]1CN2C[C@H](O)CC2CN1Cc1ccc2c3ccccc3n(C)c2c1 (stereo partly shown) [CBK284554]
HeLa
  % viability: 102%
In vitro
  viability at 28.5 h, 10 µM: 91.5%

## CC(C)NC(=O)n1nccc1-c1cc(-c2ccccc2)no1 [CBK086581]
HeLa
  % viability: 82.6%
In vitro
  viability at 28.5 h, 10 µM: 102%

## Cc1cc(-c2cncc(NCCc3c[nH]c4ccccc34)n2)cc(C)c1O [CBK107896]
HeLa
  % viability: 83%
In vitro
  viability at 28.5 h, 10 µM: 101%

## O=C(O)CCCCCN1C(=O)CC(c2ccc(Cl)cc2)CC1=O [CBK287245]
HeLa
  % viability: 102%
In vitro
  viability at 28.5 h, 10 µM: 104%

## O=C(CC1Nc2ccccc2NC1=O)Nc1ccccc1 (stereo not shown) [CBK265365]
HeLa
  % viability: 103%
In vitro
  viability at 28.5 h, 10 µM: 99.8%

## O=C(CSc1nc2ccccc2[nH]1)Nc1ccccc1 [CBK073089]
HeLa
  % viability: 91.6%
In vitro
  viability at 28.5 h, 10 µM: 110%

## CC(C)(CC(=O)O)CC(=O)Nc1cccc(CCc2ccncc2)c1 [CBK286989]
HeLa
  % viability: 84.8%
In vitro
  viability at 28.5 h, 10 µM: 99.3%

## COc1ccc(-c2cc(C3CC3)nc(SCC(=O)O)c2C#N)cc1 [CBK262690]
HeLa
  % viability: 90.1% and 95%
In vitro
  viability at 28.5 h, 10 µM: 91.3%

## O=C(C1CCC1)N1CCC[C@H]1Cn1nc(-c2cccs2)ccc1=O [CBK284251]
HeLa
  % viability: 78.8%
In vitro
  viability at 28.5 h, 10 µM: 80.9%

## O=C(NCCc1ccccc1)[C@H]1C=CCN1C(=O)c1ccccc1F [CBK285471]
HeLa
  % viability: 104%
In vitro
  viability at 28.5 h, 10 µM: 94%

## C[C@@H](Cn1c(=O)oc2ccccc21)NC(=O)Cc1ccsc1 [CBK284535]
HeLa
  % viability: 84.7%
In vitro
  viability at 28.5 h, 10 µM: 96.9%

## CC[C@@H](Cn1ncc2ccccc2c1=O)NC(=O)C1CC1 [CBK282385]
HeLa
  % viability: 91.3%
In vitro
  viability at 28.5 h, 10 µM: 88.3%

## O=C(O)CCc1ccc(-c2cccs2)n1-c1cc(Cl)ccc1O [CBK131890]
HeLa
  % viability: 106%
In vitro
  viability at 28.5 h, 10 µM: 104%

## O=C1CCCc2c1nc(-c1ccccc1Cl)n2O [CBK271948]
HeLa
  % viability: 82.2%
In vitro
  viability at 28.5 h, 10 µM: 89.5%

## O[C@@H]1C[C@H]2CN(Cc3ccsc3)[C@@H](Cc3ccccc3)CN2C1 [CBK285376]
HeLa
  % viability: 95.8%
In vitro
  viability at 28.5 h, 10 µM: 91.9%

## c1cnc2c(c1)cc([C@@H]1CCCO1)n2CCN1CCCCC1 [CBK282273]
HeLa
  % viability: 109%
In vitro
  viability at 28.5 h, 10 µM: 101%
